Common to all, as to assay type: functional
Experiment [1] relates to Escherichia coli. Put plainly: Antimicrobial activity against Escherichia coli TOP10.
Experiment [2] deals with Vibrio splendidus. Nature of the experiment: Antimicrobial activity against Vibrio splendidus 12B01 expressing plasmid-mediated QnrS-like quinolone resistance determinants.
For experiment [3], the system named is Vibrio splendidus. Nature of the experiment: Antimicrobial activity against Vibrio splendidus LGP32 expressing plasmid-mediated QnrS-like quinolone resistance determinants.
Experiment [4] relates to Escherichia coli. Put plainly: Antimicrobial activity against Escherichia coli TOP10 harbouring p0 plasmid expressing pCR-BluntII-TOPO.
For experiment [5], the system named is Escherichia coli. Put plainly: Antimicrobial activity against Escherichia coli TOP10 harbouring pVS1 expressing quinolone resistant Vibrio splendidus 12B01 QnrVS1 gene.
Experiment [6] relates to Escherichia coli. Nature of the experiment: Antimicrobial activity against Escherichia coli TOP10 harbouring pVS2 expressing quinolone resistant Vibrio splendidus LGP32 QnrVS2 gene.
Experiment [7] relates to Escherichia coli. Put plainly: Antimicrobial activity against Escherichia coli TOP10 harbouring pS2 plasmid expressing quinolone resistant QnrS2 gene.
In experiment [8] the test system is Escherichia coli. Nature of the experiment: Antimicrobial activity against Escherichia coli TOP10 harbouring pS1 plasmid expressing quinolone resistant QnrS1 gene.

≈ marks a conversion by molar mass, not a printed value.

As usually defined, the MIC is the smallest concentration in the dilution series that meets the test's criterion for growth inhibition. For `O=C(O)c1cn(C2CC2)c2cc(N3CCNCC3)c(F)cc2c1=O` [CIPROFLOXACIN], the MIC in experiment [1] is less than 0.01 µg/mL; in experiment [2] it was 0.25 µg/mL (≈ 0.754 µM); in experiment [3] it was 0.25 µg/mL (≈ 0.754 µM).

Turning to `CCn1cc(C(=O)O)c(=O)c2ccc(C)nc21` [NALIDIXIC ACID], the MIC in experiment [4] worked out at 1 µg/mL (≈ 4.31 µM); in experiment [5], 8 µg/mL (≈ 34.4 µM); in experiment [1], 1 µg/mL (≈ 4.31 µM); in experiment [6], 8 µg/mL (≈ 34.4 µM); in experiment [2], 2 µg/mL (≈ 8.61 µM); in experiment [3], 4 µg/mL (≈ 17.2 µM). Also, the MIC in experiment [7] and in experiment [8] was 8 µg/mL (≈ 34.4 µM) throughout.

With `CCn1cc(C(=O)O)c(=O)c2cc(F)c(N3CCNCC3)cc21` [NORFLOXACIN], the MIC in experiment [4] amounted to 0.03 µg/mL (≈ 0.0939 µM); in experiment [5] it was 0.5 µg/mL (≈ 1.57 µM); in experiment [1], 0.03 µg/mL (≈ 0.0939 µM); in experiment [6] it was 0.5 µg/mL (≈ 1.57 µM); in experiment [2] it was 0.25 µg/mL (≈ 0.783 µM); in experiment [3], 0.5 µg/mL (≈ 1.57 µM). Also, the minimum inhibitory concentration (MIC) in experiment [7] and in experiment [8] was 1 µg/mL (≈ 3.13 µM) throughout.

For the molecule `CC1COc2c(N3CCN(C)CC3)c(F)cc3c(=O)c(C(=O)O)cn1c23` (configuration not stated) [OFLOXACIN], the MIC in experiment [5] turned out to be 0.25 µg/mL (≈ 0.692 µM); in experiment [6], 0.25 µg/mL (≈ 0.692 µM); in experiment [2], 0.25 µg/mL (≈ 0.692 µM); in experiment [3] it was 0.5 µg/mL (≈ 1.38 µM).

Take `COc1c(N2C[C@@H]3CCCN[C@@H]3C2)c(F)cc2c(=O)c(C(=O)O)cn(C3CC3)c12` [MOXIFLOXACIN]: the MIC is 0.12 µg/mL (≈ 0.299 µM) in experiment [5]; less than 0.01 µg/mL in experiment [1]; 0.12 µg/mL (≈ 0.299 µM) in experiment [6]; 0.25 µg/mL (≈ 0.623 µM) in experiment [2]; 0.25 µg/mL (≈ 0.623 µM) in experiment [3]; 0.25 µg/mL (≈ 0.623 µM) in experiment [7]. It took 0.25 µg/mL (≈ 0.623 µM) to inhibit growth in experiment [8] (MIC).

In the case of `C[C@@H]1CN(c2c(F)c(N)c3c(=O)c(C(=O)O)cn(C4CC4)c3c2F)C[C@H](C)N1` [SPARFLOXACIN], the MIC in experiment [5] is 0.12 µg/mL (≈ 0.306 µM); in experiment [1], less than 0.01 µg/mL; in experiment [6], 0.12 µg/mL (≈ 0.306 µM); in experiment [2], 0.25 µg/mL (≈ 0.637 µM); in experiment [3], 0.5 µg/mL (≈ 1.27 µM); in experiment [7], 0.25 µg/mL (≈ 0.637 µM). In experiment [8], the MIC is 0.25 µg/mL (≈ 0.637 µM).

The record behind these values is ChEMBL document CHEMBL1150794, “Vibrio splendidus as the source of plasmid-mediated QnrS-like quinolone resistance determinants” (2007).
